Assay results reported in US20260337661A1, “BIOMARKERS OF THE INTEGRATED STRESS RESPONSE AND USES THEREOF” (Calico Life Sciences LLC, priority 2023, published 2026).

Legend:
ISR signature genes = assay: Gene expression of the ISR signature in cerebellum and spinal cord of VWM mice treated with 2BAct; type: in vivo, mouse; conditions: 30 mg/kg in food pellets, four months
Procedure: (§1) FIGS. 2A and 2B depict gene expression of the ISR signature and GDF15 in the cerebellum (FIG. 2A) and spinal cord (FIG. 2B) of VWM mice and WT mice following 4 months of treatment with 30 mg/kg 2BAct in food pellets or control chow. Samples were also collected after a drug washout period of 2 months.
(§2) In this example, a VWMD mouse model harboring a R191H mutation in eIF2B was used.
(§3) VWM mice and WT mice were treated with 2BAct at 30 mg/kg for four months in food pellets. Subsequently, expressions of ISR signature genes and GDF15 in the cerebellum were determined.

GDF15 [1] = assay: GDF15 mRNA levels in the CNS (cerebellum, spinal cord) of VWM mice treated with 2BAct; type: in vivo, mouse; conditions: cerebellum and spinal cord, FIGS. 2C and 2D
Procedure: as §1
FIG. 2C and FIG. 2D show GDF15 mRNA levels determined in cerebellum (FIG. 2C) and spinal cord (FIG. 2D) in WT mice, VWM mice, and VWM mice treated with 2BAct for 4 months and 2 months after cessation of 2BAct treatment. *p<0.05, **p<0.01, ***p<0.001 by Mann Whitney.
as §2, §3

GDF15 [2] = assay: GDF15 protein levels in CSF and plasma of VWM mice treated with 2BAct; type: in vivo, mouse
Procedure: FIG. 2E and FIG. 2F show GDF15 protein levels determined in CSF (FIG. 2E) and plasma (FIG. 2F) in WT mice, VWM mice, and VWM mice treated with 2BAct for 4 months and 2 months after cessation of 2BAct treatment. *p<0.05, **p<0.01, ***p<0.001 by Mann Whitney.
as §2, §3

GDF15 [3] = assay: GDF15 protein in astrocyte-derived exosomes (ADE) and neuron-derived exosomes (NDE) in plasma of VWM mice (immunoassay); type: in vivo, mouse
Procedure: GDF15 protein was quantified in astrocyte-derived exosomes (ADEs) or neuron-derived exosomes (NDEs) in plasma using immunoassay. ADEs and NDEs were captured with anti-GLAST antibody and anti-SNAP25 antibody, respectively. GLAST is an astrocyte specific cell-surface protein; SNAP25 is highly expressed on neuronal membrane. The detection of GDF15 was performed by incubation with a specific anti-GDF15 antibody followed by an anti-mouse IgG conjugated to Horseradish peroxidase.

[4] = test system: ISR signature genes, including Atf5, Eif4ebp1 and Trib3; conditions: previously shown; cited from earlier work
[5] = previously shown; cited from earlier work

O=C(COc1ccc(Cl)c(F)c1)NC12CC(NC(=O)c3cnc(C(F)F)cn3)(C1)C2 [Compound 2BAct]
ISR gene expression signature in the cerebellum (ISR signature genes; FIG. 2A): inhibited the ISR gene expression signature
ISR gene expression signature in the spinal cord (ISR signature genes; FIG. 2B): inhibited the ISR gene expression signature
GDF15 mRNA levels in the CNS following treatment (GDF15 [1]; 30 mg/kg in food pellets, four months): markedly reduced
GDF15 mRNA levels in the CNS after cessation of treatment (GDF15 [1]; 2 months after cessation of 4-month treatment): rebounded to pre-treatment levels
CSF GDF15 levels after treatment (GDF15 [2]; 30 mg/kg in food pellets, 4-month treatment, FIG. 2E): suppressed
plasma GDF15 (GDF15 [2]; 30 mg/kg in food pellets, four months, FIG. 2F): did not affect plasma GDF15
CSF GDF15 levels following drug washout (GDF15 [2]; 2 months of drug washout after 4-month treatment, FIG. 2E): returned to pre-dose baseline levels
GDF15 expression in plasma ADE (GDF15 [3]; 30 mg/kg for 10 days, FIG. 7A): suppressed GDF15 expression in plasma ADE and NDE to the level present in WT mice
GDF15 expression in plasma NDE (GDF15 [3]; 30 mg/kg for 10 days, FIG. 7B): suppressed GDF15 expression in plasma ADE and NDE to the level present in WT mice
downmodulation of GDF15 expression on VWM ADE (GDF15 [3]; astrocyte derived exosomes, FIG. 7A): 2.7 fold
downmodulation of GDF15 expression on VWM NDE (GDF15 [3]; neuron derived exosomes, FIG. 7B): 1.7 fold
ISR signature genes, including Atf5, Eif4ebp1 and Trib3, in the brain [4]: suppress the ISR signature genes
motor deficit [5]: corrected motor deficit
